Measurements reported in patent publication US4668674A, “(+)-6-chloro-5,10-dihy dro-5-[(1-methyl-4-piperidinyl)-acetyl]-11H-dibenzo[b,][1,4]diazepin-11-o ne, the isolation thereof and its use as a pharmaceutical material” (Dr. Karl Thomae GmbH, priority 1985, dated 1987).

Experiments:
[1] = ambient temperature; Arzneim.-Forsch./Drug Res. 34(II), 8, 849-859 (1984); cited from earlier work
[2] = tested on: volume and total acid secretion; assay: Effect on rats after ligature of the pylorus (gastric juice volume and total acid); format: in vivo, Male Wistar rats; details: rat, i.v.; for ED50 value: given immediately before pylorus ligature, 2 hours, 120 min
Protocol: Effect on rats after ligature of the pylorus
Male Wistar rats (weighing between 100 and 125 g) which had fasted for 24 hours but had free access to water was used. The rats were divided up into groups of 10 animals. The rats were anaesthetised with ether and the abdominal cavity was opened up by longitudinal cutting and the pylorus was tied off. Before ligature of the pylorus, the substances dissolved in saline solution were administered intravenously in metered doses (0.1 ml/100 g of body weight), the intravenous administration was carried out immediately before ligature of the pylorus; control animals were given only the saline solution. Two hours after the ligature the animals were killed and the stomachs were carefully removed. The stomach contents were collected and centrifuged for 15 minutes at 4000 rpm, then the supernatant was separated off in order to determine the volume of gastric juices. Using a pH measuring apparatus (I.T.T. Radiometer PHM 62) the acidity was measured by titration to pH 7 of 1 ml samples of the gastric juices.
The total acid was calculated from the product of the measured volume and acidity (microequivalent.ml) and expressed as microequivalents over 2 or 4 hours. The data obtained from the individual pretreated rats were compared with the average values obtained from the control groups and expressed as the percentage deviation. The percentage values were transformed into probits and subjected to linear regression analysis in order to determine the ED50 values for volume and total acid secretion, whilst observing 95% confidence limits.

[3] = tested on: secretion of gastric acid; assay: Anti-ulcerative effect, inhibition of gastric acid secretion and effect on other gastro-intestinal diseases (general statement); format: in vivo; details: for physiological/biological effectiveness: statement in words
Racemisation Test = format: physicochemical
[4] = pH 1 to 9, water, glycol, melt, up to 150° C., fifteen minutes

## CN1CCN(CC(=O)N2c3ccccc3C(=O)Nc3cccnc32)CC1 [pirenzepine]
[1]
  interconversion of enantiomeric forms: rapidly interconvert

## CN1CCC(CC(=O)N2c3ccccc3C(=O)Nc3cccc(Cl)c32)CC1 [(-) form]
[2]; 3 mg/kg
  deviation from the average values of untreated control groups: 1.6%
[2]
  ED50 value: > 3 mg/kg
[3]; (-) form, to achieve the same results
  quantity required to achieve the same results: at least 50 times

## CN1CCC(CC(=O)N2c3ccccc3C(=O)Nc3cccc(Cl)c32)CC1 [formula I, 6-chloro-5,10-dihydro-5-[(1-methyl-4-piperidinyl)-acetyl]-11H-dibenzo[b,e][1,4]diazepin-11-one]
Racemisation Test; ambient temperature
  stability of enantiomeric forms: stable at ambient temperature

## CN1CCC(CC(=O)N2c3ccccc3C(=O)Nc3cccc(Cl)c32)CC1 [(+) form, (+)-6-Chloro-5,10-dihydro-5-[(1-methyl-4-piperidinyl)-acetyl]-11H-dibenzo[b,e][1,4]diazepin-11-one]
[2]
  ED50 value: 0.18 mg/kg
[2]; conclusion in words
  activity in the pylorus ligature experiment: the form which carries the activity
Racemisation Test; [4]
  formation of (-) enantiomer (HPLC): no (-) enantiomer had formed
  optical rotation on heating: remained constant
  racemisation: no racemisation
[3]; compared with the mixture of enantiomers
  dosage needed to achieve the same results, relative to the mixture of enantiomers: approximately only half the dosage
[3]; particularly low bowel distress symptoms
  effect on various other diseases of the gastro-intestinal tract: favourable effect on various other diseases of the gastro-intestinal tract
[3]
  physiological/biological effectiveness: physiologically highly effective
[3]; listed as Ia
  physiological/biological effectiveness: biologically effective form
[3]; unlike the (-) form
  anti-ulcerative effect: Powerful anti-ulcerative effect
  effect on the secretion of gastric acid: inhibitory effect on the secretion of gastric acid
